These results are taken from PubChem BioAssay AID330 (DTP/NCI, 2004).

Values joined by “and” are separate entries in the source; they are usually repeats but may differ in a detail not shown here. Equal values may be shown once. Toxic doses and inconclusive results are not listed. Square brackets hold non-standard residues; d marks the D form. Peptide text beside a SMILES is read from it. Ac5c = NC1(C(=O)O)CCCC1

For the assay, the system named is P388 leukemia ip, CD2F1 mice, survival T/C. The experiment in a line: NCI In Vivo Anticancer Drug Screen. Data for tumor model P388 Leukemia (intraperitoneal) in CD2F1 (CDF1) mice. The settings on record: endpoint: median survival time, higher = longer survival. The procedure, abridged:
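Mice carrying the transplanted tumor received test compound or vehicle. Survival was recorded in each group, and the value is the treated-group measurement divided by that of the vehicle-treated control group.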

The mark [1] stands for this setting: dose: 60.0 mg/kg/injection, schedule: Q01DX005 (ip), vehicle: saline with Tween-80.
Where [2] appears, read: dose: 120.0 mg/kg/injection, schedule: Q01DX005 (ip), vehicle: saline with Tween-80.
Setting [3] is: dose: 240.0 mg/kg/injection, schedule: Q01DX005 (ip), vehicle: saline with Tween-80.
The mark [4] stands for this setting: dose: 12.5 mg/kg/injection, schedule: Q01DX009 (ip), vehicle: Klucel (hydroxypropylcellulose) (HPC).
[5] abbreviates: dose: 25.0 mg/kg/injection, schedule: Q01DX009 (ip), vehicle: Klucel (hydroxypropylcellulose) (HPC).
Setting [6] is: dose: 50.0 mg/kg/injection, schedule: Q01DX009 (ip), vehicle: Klucel (hydroxypropylcellulose) (HPC).
[7] abbreviates: dose: 100.0 mg/kg/injection, schedule: Q01DX009 (ip), vehicle: Klucel (hydroxypropylcellulose) (HPC).
Where [8] appears, read: dose: 100.0 mg/kg/injection, schedule: Q04DX003 (ip), vehicle: saline.
Setting [9] is: dose: 200.0 mg/kg/injection, schedule: Q04DX003 (ip), vehicle: saline.
Where [10] appears, read: dose: 400.0 mg/kg/injection, schedule: Q04DX003 (ip), vehicle: saline.
The mark [11] stands for this setting: dose: 100.0 mg/kg/injection, schedule: Q01DX005 (ip), vehicle: saline.
Where [12] appears, read: dose: 100.0 mg/kg/injection, schedule: Q01DX009 (ip), vehicle: saline with Tween-80.
Where [13] appears, read: dose: 200.0 mg/kg/injection, schedule: Q01DX009 (ip), vehicle: saline with Tween-80.
The mark [14] stands for this setting: dose: 50.0 mg/kg/injection, schedule: Q01DX005 (ip), vehicle: saline with Tween-80.
Where [15] appears, read: dose: 100.0 mg/kg/injection, schedule: Q01DX005 (ip), vehicle: saline with Tween-80.
[16] abbreviates: dose: 200.0 mg/kg/injection, schedule: Q01DX005 (ip), vehicle: saline with Tween-80.
The mark [17] stands for this setting: dose: 60.0 mg/kg/injection, schedule: Q01DX005 (ip), vehicle: saline.
[18] abbreviates: dose: 120.0 mg/kg/injection, schedule: Q01DX005 (ip), vehicle: saline.
The mark [19] stands for this setting: dose: 240.0 mg/kg/injection, schedule: Q01DX005 (ip), vehicle: saline.

Consider `CC1(C)CC(=O)c2ccccc21`, for which the T/C by setting is: (dose: 3.12 mg/kg/injection, schedule: Q01DX005 (ip), vehicle: saline with Tween-80) 106 % of control; (dose: 6.25 mg/kg/injection, schedule: Q01DX005 (ip), vehicle: saline with Tween-80) 103 % of control; (dose: 12.5 mg/kg/injection, schedule: Q01DX005 (ip), vehicle: saline with Tween-80) 113 % of control; (dose: 25.0 mg/kg/injection, schedule: Q01DX005 (ip), vehicle: saline with Tween-80) 113 % of control.

`O=c1c(Br)cc2c(-c3ccccc3)c3cc(Br)c(O)c(Br)c3oc-2c1Br`: the T/C is 97 % of control under setting [1], 97 % of control under setting [2] and 110 % of control under setting [3].

On to `Cc1ccc(NC(=S)SCc2ccc3c(c2)OCO3)cc1Br`, for which the T/C was 122 % of control under setting [4]; 102 % of control under setting [5]; 120 % of control under setting [6]; 104 % of control (dose: 50.0 mg/kg/injection, schedule: Q01DX009 (ip), vehicle: suspension in saline); 115 % of control under setting [7]; 111 % of control (dose: 100.0 mg/kg/injection, schedule: Q01DX009 (ip), vehicle: suspension in saline). The T/C (dose: 200.0 mg/kg/injection, schedule: Q01DX009 (ip), vehicle: Klucel (hydroxypropylcellulose) (HPC)) was 116 % of control and the T/C (dose: 200.0 mg/kg/injection, schedule: Q01DX009 (ip), vehicle: suspension in saline) was 104 % of control.

On to `NCC(=O)NC1(C(=O)O)CCCC1` (H-Gly-[Ac5c]-OH), for which the T/C reads like this: (dose: 25.0 mg/kg/injection, schedule: Q01DX009 (ip), vehicle: saline) 118 % of control; (dose: 50.0 mg/kg/injection, schedule: Q01DX009 (ip), vehicle: saline) 118 % of control; (dose: 100.0 mg/kg/injection, schedule: Q01DX009 (ip), vehicle: saline) 122 % of control; under setting [8], 95 % of control; (dose: 200.0 mg/kg/injection, schedule: Q01DX009 (ip), vehicle: saline) 105 % of control; under setting [9], 100 % of control. For the same compound, the T/C was 93 % of control (dose: 400.0 mg/kg/injection, schedule: Q01DX009 (ip), vehicle: saline) and 108 % of control under setting [10].

On to `CC(N)C(=O)NC(Cc1ccccc1)C(=O)O` (configuration not stated), for which the T/C by setting is: (dose: 50.0 mg/kg/injection, schedule: Q01DX005 (ip), vehicle: saline) 101 % of control; under setting [11], 105 % of control; (dose: 200.0 mg/kg/injection, schedule: Q01DX005 (ip), vehicle: saline) 105 % of control.

As to `N#CNc1nnnn1-c1ccccc1` (tested in a mixture with another compound), the T/C is, setting by setting: (dose: 100.0 mg/kg/injection, schedule: Q04DX003 (ip), vehicle: Klucel (hydroxypropylcellulose) (HPC)) 96 % of control; (dose: 200.0 mg/kg/injection, schedule: Q04DX003 (ip), vehicle: Klucel (hydroxypropylcellulose) (HPC)) 92 % of control; (dose: 400.0 mg/kg/injection, schedule: Q04DX003 (ip), vehicle: Klucel (hydroxypropylcellulose) (HPC)) 98 % of control.

In the case of `CCOC(=O)C1CCC/C1=N/Nc1ccc([N+](=O)[O-])cc1[N+](=O)[O-]` (configuration not stated), the T/C (dose: 100.0 mg/kg/injection, schedule: Q01DX001 (ip), vehicle: Klucel (hydroxypropylcellulose) (HPC)) is 94 % of control; the T/C (dose: 200.0 mg/kg/injection, schedule: Q01DX001 (ip), vehicle: Klucel (hydroxypropylcellulose) (HPC)) is 93 % of control; the T/C (dose: 400.0 mg/kg/injection, schedule: Q01DX001 (ip), vehicle: Klucel (hydroxypropylcellulose) (HPC)) was 93 % of control.

In the case of `CC(C)n1nnc2c3ccccc3c3ccccc3c21`, the T/C under setting [1] is 109 % of control, the T/C under setting [2] is 102 % of control and the T/C under setting [3] was 105 % of control.

Consider `c1ccc(Cc2csc3nc4ccccc4n23)cc1`, for which the T/C by setting is: under setting [1], 100 % of control; under setting [2], 109 % of control; under setting [3], 99 % of control.

Turning to `O=C(O)c1cccc2cccc(-c3c4ccc(=O)c(O)c-4oc4c(O)c(O)ccc34)c12`, the T/C by setting is: under setting [12], 109 % of control; under setting [13], 113 % of control.

Regarding `COc1cc2c(cc1C(C)c1ccc(F)cc1)OCO2` (configuration not stated), the T/C reads like this: under setting [14], 98 % of control; under setting [15], 100 % of control; under setting [16], 107 % of control.

In the case of `CCS/C(C#N)=C(/C)c1ccccc1`, the T/C under setting [14] is 101 % of control, the T/C under setting [15] was 106 % of control and the T/C under setting [16] is 108 % of control.

For the compound `C=C(C)C(=NC(C)(C)C)Nc1ccccc1`, the T/C runs as follows: (dose: 10.0 mg/kg/injection, schedule: Q01DX005 (ip), vehicle: saline) 119 % of control; under setting [4], 121 % of control; (dose: 12.5 mg/kg/injection, schedule: Q01DX009 (ip), vehicle: saline with Tween-80) 116 % of control; under setting [5], 106 % of control; under setting [6], 107 % of control; under setting [11], 152 % of control. The T/C under setting [7] was 107 % of control.

On to `CCc1onc(-c2noc(CC)c2C)c1C`, for which the T/C was 98 % of control under setting [17], 104 % of control under setting [18] and 107 % of control under setting [19].

As for `CC1=C2CC(C)(C)/C=C\C(=O)/C(C)=C\C3=CCCC3(O2)C1=O` (configuration not stated), the T/C is 110 % of control (dose: 5.0 mg/kg/injection, schedule: Q01DX005 (ip), vehicle: Klucel (hydroxypropylcellulose) (HPC)); 120 % of control (dose: 10.0 mg/kg/injection, schedule: Q01DX005 (ip), vehicle: Klucel (hydroxypropylcellulose) (HPC)); 107 % of control (dose: 20.0 mg/kg/injection, schedule: Q01DX005 (ip), vehicle: Klucel (hydroxypropylcellulose) (HPC)).

In the case of `CCSC(C/C=C/c1ccccc1)S(=O)CC` (configuration not stated), the T/C reads like this: under setting [8], 99 % of control; under setting [9], 107 % of control; under setting [10], 105 % of control.

Consider `COC1OC(CNCCO)C2OC(C)(C)OC12` (configuration not stated), for which the T/C by setting is: (dose: 50.0 mg/kg/injection, schedule: Q01DX005 (ip), vehicle: saline + alcohol) 100 % of control; (dose: 100.0 mg/kg/injection, schedule: Q01DX005 (ip), vehicle: saline + alcohol) 100 % of control; (dose: 200.0 mg/kg/injection, schedule: Q01DX005 (ip), vehicle: saline + alcohol) 100 % of control.

Regarding `NC(=O)c1cncn1C1OCC(O)C(O)C1O` (configuration not stated), the T/C was 96 % of control under setting [17], 94 % of control under setting [18] and 91 % of control under setting [19].

As to `Nc1nc2ccccc2c2c1C(=O)NC2=O`, the T/C was 104 % of control (dose: 50.0 mg/kg/injection, schedule: Q01DX009 (ip), vehicle: saline with Tween-80); 86 % of control under setting [12]; 90 % of control under setting [13].

On to `COc1ccc2c(c1)C(=O)[C@]1(C)C3(C)OC(=O)C(c4ccccc43)[C@]21C` (some centres not stated), for which the T/C under setting [1] was 110 % of control, the T/C under setting [2] was 105 % of control and the T/C under setting [3] was 98 % of control.

Turning to `CC1=NN(c2ccccc2)C(=O)/C1=C(\[O-])c1ccccc1.CC1=NN(c2ccccc2)C(=O)/C1=C(\[O-])c1ccccc1.CC1=NN(c2ccccc2)C(=O)/C1=C(\[O-])c1ccccc1.[Fe+3]`, the T/C by setting is: (dose: 15.0 mg/kg/injection, schedule: Q01DX005 (ip), vehicle: saline with Tween-80) 96 % of control and 97 % of control; (dose: 30.0 mg/kg/injection, schedule: Q01DX005 (ip), vehicle: saline with Tween-80) 101 % of control and 90 % of control; under setting [2], 104 % of control and 87 % of control.

Regarding `CC(=O)NC1C(=O)OC(C(O)CO)C1O` (configuration not stated), the T/C is 106 % of control (dose: 12.5 mg/kg/injection, schedule: Q01DX009 (ip), vehicle: water); 91 % of control (dose: 25.0 mg/kg/injection, schedule: Q01DX009 (ip), vehicle: water); 94 % of control (dose: 50.0 mg/kg/injection, schedule: Q01DX009 (ip), vehicle: water); 102 % of control (dose: 100.0 mg/kg/injection, schedule: Q01DX009 (ip), vehicle: water); 98 % of control (dose: 200.0 mg/kg/injection, schedule: Q01DX009 (ip), vehicle: water).
